Data as given in the CheMixHub drug solubility set.

Test: xn = mol fraction of the nth substance listed, in the solute-free solvent

CCC(C)n1ncn(-c2ccc(N3CCN(c4ccc(OCC5COC(Cn6cncn6)(c6ccc(Cl)cc6Cl)O5)cc4)CC3)cc2)c1=O (stereo unspecified) + ClCCl + CO
solubility (g/100 g solution)
Settings	x2 = 0.04066	x2 = 0.08707	x2 = 0.1405	x2 = 0.2028	x2 = 0.2761	x2 = 0.364	x2 = 0.4709	x2 = 0.6041	x2 = 0.7744
288.15 K	0.122	0.244	0.561	1.46	4.71	10.6	19.3	28	31.4
293.15 K	0.147	0.294	0.696	1.84	5.79	12.5	21.2	29.4	32.6
298.15 K	0.177	0.355	0.855	2.28	6.97	14.5	23.2	30.8	33.9
303.15 K	0.212	0.426	1.04	2.83	8.37	16.8	25.3	32.2	35
308.15 K	0.253	0.508	1.26	3.5	9.95	19.3	27.6	33.6	36.2

CC(N)C(=O)O (stereo unspecified) + O + CC(C)=O
solubility (g/100 g solution)
Settings	x2 = 0.1	x2 = 0.2	x2 = 0.3	x2 = 0.4	x2 = 0.5	x2 = 0.6	x2 = 0.7	x2 = 0.8	x2 = 0.9
283.15 K	0.0237	0.0301	0.047	0.0557	0.0712	0.135	0.382	1.03	3.44
293.15 K	0.0407	0.0463	0.0511	0.0648	0.0791	0.17	0.457	1.34	4.17
303.15 K	0.047	0.053	0.0603	0.0794	0.0969	0.22	0.611	1.73	5.02
313.15 K	0.0547	0.0607	0.0696	0.0949	0.128	0.309	0.794	2.22	6.57
323.15 K	0.0629	0.0786	0.0878	0.138	0.193	0.484	1.14	3.18	8.13

Cc1ncc(C[n+]2csc(CCO)c2C)c(N)n1.O=[N+]([O-])[O-] + O + CC(C)=O
solubility (g/100 g solution)
Settings	278.15 K	283.15 K	288.15 K	293.15 K	298.15 K	303.15 K	308.15 K	313.15 K
x2 = 0.3	0.0632	0.0724	0.0831	0.0951	0.118	0.138	0.161	0.193
x2 = 0.4	0.169	0.198	0.227	0.252	0.298	0.344	0.393	0.437
x2 = 0.5	0.394	0.441	0.498	0.556	0.639	0.733	0.842	0.951
x2 = 0.6	0.648	0.746	0.87	0.996	1.16	1.37	1.64	2
x2 = 0.7	1.08	1.24	1.45	1.69	1.98	2.3	2.69	3.23
x2 = 0.8	1.55	1.8	2.14	2.53	2.97	3.56	4.14	4.86
x2 = 0.9	1.85	2.17	2.54	3.11	3.62	4.28	5	5.96
